# Numbers after ± are expanded uncertainties.
# What was measured:
# [1] = molar heat capacity at constant pressure; settings: 100 kPa, Liquid, isoperibol calorimetry
# [2] = excess molar enthalpy (molar enthalpy of mixing); xn = mol fraction of the nth substance listed; settings: 313.15 K, 100 kPa, Liquid, Power-compensation calorimetry
Compound,molar heat capacity at constant pressure ([1]; 303.15 K),molar heat capacity at constant pressure ([1]; 313.15 K),molar heat capacity at constant pressure ([1]; 323.15 K),molar heat capacity at constant pressure ([1]; 333.15 K),molar heat capacity at constant pressure ([1]; 343.15 K),molar heat capacity at constant pressure ([1]; 353.15 K),molar heat capacity at constant pressure ([1]; 363.15 K),molar heat capacity at constant pressure ([1]; 373.15 K),excess molar enthalpy ([2]; x1 = 0.017),excess molar enthalpy ([2]; x1 = 0.019),excess molar enthalpy ([2]; x1 = 0.023),excess molar enthalpy ([2]; x1 = 0.027),excess molar enthalpy ([2]; x1 = 0.25),excess molar enthalpy ([2]; x1 = 0.5)
CCOP(=O)([O-])OCC.CCn1cc[n+](C)c1 [1-ethyl-3-methylimidazolium diethyl phosphate],504.73 ± 32 J/K/mol,507.38 ± 32 J/K/mol,510.02 ± 32 J/K/mol,515.3 ± 32 J/K/mol,523.23 ± 32 J/K/mol,528.52 ± 32 J/K/mol,536.44 ± 32 J/K/mol,541.73 ± 32 J/K/mol,,,,,,
CCOP(=O)([O-])OCC.CCn1cc[n+](C)c1 [1-ethyl-3-methylimidazolium diethyl phosphate] + O,,,,,,,,,-0.112 ± 0.00454 kcal/mol,-0.13 ± 0.00526 kcal/mol,-0.154 ± 0.00621 kcal/mol,-0.181 ± 0.00741 kcal/mol,-1.19 ± 0.0478 kcal/mol,-1.26 ± 0.0502 kcal/mol

# Reference: the NIST ThermoML archive (doi:10.1016/j.jct.2018.07.002)
